The test system of one data set is ADPRT. Particulars: Sims et al, Biochem. 21:1813-1821, 1982; cited from earlier work.
Data set [1] has as its system human squamous cell carcinoma (SCC) (ABII) of the head and neck xeno-grafted to nude mice. The experiment in a line: Growth of human SCC (ABII) xenografted to nude mice, CDDP with or without metoclopramide. Format: in vivo. Particulars: for Reduction in AUC (area under plotted tumor growth curves), agent given alone: schedules A and B, metoclopramide 2.0 mg/kg i.p. (x1 or x3), CDDP 7.5 mg/kg i.p. Here is the method: Cisplatin (cis-diamine-dichloroplatinum=CDDP) is a heavy metal complex with alkylating properties which allow bifunctional linking to DNA. CDDP has been used successfully as a chemotherapeutic agent to treat several types of human cancers. Since CDDP treatment regimes induce nausea and vomiting, metoclopramide is often co-administered therewith as an antiemetic drug.
Two administration schedules were tested: (A) metoclopramide (2.0 mg/kg i.p.) one hour before CDDP (7.5 mg/kg i.p.) and (B) metoclopramide (2.0 mg/kg×3 treatment times) given separately concomitant to CDDP (7.5 mg/kg i.p.) and 24 hr and 48 hr after CDDP administration. In both schedules the combined treatment was compared with CDDP alone, metoclopramide alone and with physiologic saline treated tumor bearing animals (controls). The tumor line used was a poorly difterentiated human SSC originating from the nose. There were n=10 animals in each group. Tumor diameters and animal weight were recorded and plotted twice weekly for 21 days. Treatment efficacies were compared using the area under the plotted growth curves (AUC).
Background: A xenograft is tissue or cells of one species grown in another, often human tumour cells in immunodeficient mice.

Data set [2] can be described thus: Cytotoxicity by trypan blue exclusion in HML. Particulars: human, mononuclear leukocytes. It is filed as cell-based.
Data set [3] deals with ADPRT (adenosine diphosphate ribosyl transferase). The experiment in a line: ADPRT activity in permeabilized HML after 30 min exposure. Format: cell-based, human. Particulars: average of duplicates. As for the experimental part:
The data were recorded as cpm TCA precipitable [^3 H]NAD per 1×10^6 cells.

The test system of data set [4] is Human mononuclear leukocytes (HML). In words: Cytotoxicity by trypan blue exclusion in HML. It is filed as cell-based. Particulars: for % Dead Cells 30 min: 0.5 h.
The subject of data set [5] is adenocarcinoma transplanted in C3H mice. Particulars: dose of 10 mg/kg, Kjellen and Pero 1987 abstract; cited from earlier work.
In another data set the test system is calmodulin. Particulars: cited from earlier work.
The mark [6] stands for this setting: 100 μM agent, 30 min incubation, HML, read-out: % Dead Cells 30 min.
Where [7] appears, read: 500 μM agent, 30 min incubation, HML, read-out: % Dead Cells 30 min.

Read-outs that look alike come from different tables or passages of the source.

One may read the IC50 as the concentration that gives 50% inhibition.

Take `Nc1cccc(C(=O)O)c1` [3-aminobenzoic acid]: in the data set with ADPRT, the “Inhibition of ADPRT” value was “failed to inhibit ADPRT”.

As to `Nc1ccc(C(=O)O)cn1` [6-amino nicotinic acid], the “Inhibition of ADPRT” value in the data set on ADPRT is “failed to inhibit ADPRT”.

Take `N.N.[Cl][Pt][Cl]` [CDDP, cis-diamine-dichloroplatinum]: the “AUC as % of control tumor growth” value in data set [1] (schedule B: CDDP 7.5 mg/kg i.p., metoclopramide 2.0 mg/kg x3 (concomitant, 24 hr, 48 hr), 21 days) is recorded as 72 % of control tumor growth. Besides, the “Reduction in AUC (area under plotted tumor growth curves), agent given alone” value in data set [1] (21 days) was “significant reduction of AUC-values”.

As to `CN(C)CCCN1c2ccccc2Sc2ccc(Cl)cc21` [Chlorpromazine, 2chloro-N,N-dimethyl-10H-phenothiazine-10-propanamine], the cytotoxicity at 0.5 h, 100 µM in data set [2] (setting [6]) was found to be 50%. For the same molecule, in data set [2] (setting [7]), the cytotoxicity at 0.5 h, 500 µM is 100%. The “ADPRT Activity” value was 1508 cpm TCA precipitable [3H]NAD p in data set [3] (100 μM agent) and 890 cpm TCA precipitable [3H]NAD p in data set [3] (500 μM agent).

On to `CC(CN1CCN(CCOCCO)CC1)CN1c2ccccc2Sc2ccccc21` (centres unmarked) [Dixyrazine], for which the cytotoxicity at 0.5 h, 100 µM in data set [2] (setting [6]) was 13%. Besides, the cytotoxicity at 18 h, 100 µM in data set [2] (100 μM agent, 18 hr incubation, HML, read-out: % Dead Cells 18 hr) was 78%. Also, the cytotoxicity at 0.5 h, 500 µM in data set [2] (setting [7]) was found to be 79%. In data set [2] (500 μM agent, 18 hr incubation, HML, read-out: % Dead Cells 18 hr), the cytotoxicity at 18 h, 500 µM worked out at 100%. The results for the “ADPRT Activity” value in data set [3] (100 μM agent) and in data set [3] (500 μM agent) were 385 cpm TCA precipitable [3H]NAD p and 850 cpm TCA precipitable [3H]NAD p, respectively.

As for `OO` [H2 O2], the “% Dead Cells 30 min” value stood at 5% in data set [4] (100 µM), 5% in data set [4] (300 µM), 7% in data set [4] (500 µM) and 12% in data set [4] (1000 µM). Besides, the “% Dead Cells 18 hr” value in data set [4] (100 µM) was found to be 40%; in data set [4] (300 µM), 41%; in data set [4] (500 µM), 55%; in data set [4] (1000 µM) it was 71%. Besides, the “ADPRT Activity” value was 1800 cpm TCA precipitable [3H]NAD p in data set [3] (100 μM agent), 2700 cpm TCA precipitable [3H]NAD p in data set [3] (300 μM agent), 2900 cpm TCA precipitable [3H]NAD p in data set [3] (500 μM agent) and 3000 cpm TCA precipitable [3H]NAD p in data set [3] (1000 μM agent).

As for `CCN(CC)CCNC(=O)c1cc(Cl)c(N)cc1OC` [Metoclopramide, 4-amino-5-chloro-N-[(2-diethylamino)ethyl]-2-methoxy-benzamide], in data set [2], the cytotoxicity at 0.5 h, 500 µM turned out to be 7%; the cytotoxicity at 0.5 h, 2000 µM worked out at 13%; the cytotoxicity at 0.5 h, 5000 µM amounted to 10%; the cytotoxicity at 0.5 h, 10000 µM is 22%. Moreover, in data set [2], the cytotoxicity at 18 h, 500 µM came to 8%; the cytotoxicity at 18 h, 2000 µM turned out to be 29%; the cytotoxicity at 18 h, 5000 µM was 58%; the cytotoxicity at 18 h, 10000 µM was 88%. Also, in data set [3] (500 μM agent), the “ADPRT Activity” value is 530 cpm TCA precipitable [3H]NAD p. Besides, the “ADPRT Activity” value in data set [3] (2000 μM agent) is 703 cpm TCA precipitable [3H]NAD p. The “ADPRT Activity” value in data set [3] (5000 μM agent) was 950 cpm TCA precipitable [3H]NAD p. In addition, in data set [3] (10000 μM agent), the “ADPRT Activity” value is 870 cpm TCA precipitable [3H]NAD p. The “Effect of adding metoclopramide to CDDP on AUC” value in data set [1] (schedule A: metoclopramide 2.0 mg/kg i.p. one hour before CDDP 7.5 mg/kg i.p.) is reported as “did not give any additive effect”. Further, in data set [1] (schedule B: metoclopramide 2.0 mg/kg x3, concomitant to CDDP 7.5 mg/kg i.p. and 24 hr and 48 hr after), the “Effect of adding metoclopramide to CDDP on AUC” value is given as “potentiated the effect of CDDP”. Also, the “Reduction in AUC (area under plotted tumor growth curves), agent given alone” value in data set [1] (21 days) is “In neither schedule A nor B did metoclopramide alone induce any significant reduction in AUC”.

For `Cc1ccc(C2(O)CCN(CCCC(=O)c3ccc(F)cc3)CC2)cc1` [Moperone, 1(4-fluorophenyl)-4-[4-hydroxy-4(4-methylphenyl)1-piperidinyl]-1-butanone], the cytotoxicity at 0.5 h, 100 µM in data set [2] (setting [6]) came to 5%. Moreover, in data set [2] (setting [7]), the cytotoxicity at 0.5 h, 500 µM stood at 7%. Moreover, the cytotoxicity at 0.5 h, 1000 µM in data set [2] (1000 μM agent, 30 min incubation, HML, read-out: % Dead Cells 30 min) came to 26%. For the same molecule, the cytotoxicity at 18 h, 1000 µM in data set [2] (1000 μM agent, 18 hr incubation, HML, read-out: % Dead Cells 18 hr) is 100%. Also, the “ADPRT Activity” value in data set [3] (100 μM agent) is 529 cpm TCA precipitable [3H]NAD p; in data set [3] (500 μM agent), 712 cpm TCA precipitable [3H]NAD p; in data set [3] (1000 μM agent), 1112 cpm TCA precipitable [3H]NAD p.

For the molecule `NC(=O)c1cccnc1` [Nicotinamide], the Radiosensitization of adenocarcinoma entry in data set [5] is given as “will radiosensitize”.

In turn, `CC(CN(C)C)CN1c2ccccc2Sc2ccccc21` (centres unmarked) [Trimeprazine] yielded a cytotoxicity at 0.5 h, 500 µM in data set [2] of 95%. The cytotoxicity at 0.5 h, 100 µM in data set [2] (setting [6]) came out at 7%. Besides, the “ADPRT Activity” value in data set [3] (100 μM agent) was 639 cpm TCA precipitable [3H]NAD p; in data set [3] (500 μM agent) it was 571 cpm TCA precipitable [3H]NAD p.

Regarding `NCCCCCCNS(=O)(=O)c1cccc2ccccc12` [W-5, N(6-aminohexyl)-naphthalenesulfonamide], the “Calmodulin antagonist activity at fixed concentration” value in the data set with calmodulin (50 μM) is “inactive”. Further, the IC50 in the data set with calmodulin (Hidaka et al, Proc. Natl. Acad. Sci. U.S.A. 78:4354-4357, 1981, read-out: IC50 dose as calmodulin antagonist) was ~250 µM. Further, in data set [2] (50 μM agent, 30 min incubation, HML, read-out: % Dead Cells 30 min), the cytotoxicity at 0.5 h, 50 µM was < 5%. Moreover, the cytotoxicity at 0.5 h, 100 µM in data set [2] (setting [6]) is < 5%. Also, in data set [2] (200 μM agent, 30 min incubation, HML, read-out: % Dead Cells 30 min), the cytotoxicity at 0.5 h, 200 µM amounted to 7%. For the same molecule, the “ADPRT Activity” value in data set [3] (50 μM agent) was 395 cpm TCA precipitable [3H]NAD p; in data set [3] (100 μM agent), 415 cpm TCA precipitable [3H]NAD p; in data set [3] (200 μM agent), 425 cpm TCA precipitable [3H]NAD p.

For `NCCCCCCNS(=O)(=O)c1cccc2c(Cl)cccc12` [W-7, N(6-aminohexyl)-5-chloro-1-naphthalenesulfonamide], in data set [2], the cytotoxicity at 0.5 h, 50 µM amounted to 10%; the cytotoxicity at 0.5 h, 100 µM was found to be 25%; the cytotoxicity at 0.5 h, 200 µM stood at 90%. Moreover, the “ADPRT Activity” value in data set [3] (50 μM agent) was 750 cpm TCA precipitable [3H]NAD p. The “ADPRT Activity” value in data set [3] (100 μM agent) was 910 cpm TCA precipitable [3H]NAD p. Further, the “ADPRT Activity” value in data set [3] (200 μM agent) is 1480 cpm TCA precipitable [3H]NAD p.

Turning to `NC(=O)c1ccccc1` [benzamide], in data set [5], the Radiosensitization of adenocarcinoma result is “totally ineffective”.

Turning to `O=C(O)c1ccccc1` [benzoic acid], the “Inhibition of ADPRT” value with ADPRT is on record as “failed to inhibit ADPRT”.

Consider `O=C(O)c1ccncc1` [isonicotinic acid], for which the “Inhibition of ADPRT” value with ADPRT is listed as “failed to inhibit ADPRT”.

Turning to pyrazine 1,2-dicarboxylic acid, the “Inhibition of ADPRT” value in the data set on ADPRT is “failed to inhibit ADPRT”.

The values are drawn from patent US5340565A, “Tumor or cancer cell killing therapy and agents useful therefor” (priority 1992, dated 1994).
